Consider 1 molecule from patent publication US20240315963A1, “COMPOSITIONS AND METHODS FOR EXTENDED DELIVERY OF API TO TREAT DISEASES OF THE EYE” (priority 2023, published 2024).

Structures are written as SMILES.

The series in a line: API elution study from the gel, buffer replaced daily, HPLC. Format: physicochemical. The conditions noted are these: 50 mg API in 4-Arm PEG-10K-SG/4-arm-PEG-10K-SAS/4-arm PEG-20K-NH2 gel; 37° C., 2 ml 7.4 buffer replaced daily. The protocol:
A mold piece manufactured per example 5 is placed in a 2 ml buffered saline at 37° C. water bath. The entire 2 ml saline is removed daily from the sample and a new 2 ml saline is added. The process is repeated daily till the device is completely dissolved. The saline sample with drug is analyzed by HPLC, GC to establish the elution rate.
Example 22. Powder mixtures of 4-Arm PEG-10K-SG (12.5 mg) and 4-arm-PEG-10K-SAS (12.5±0.5 mg), 4-arm PEG-20K-NH 2 (25±0.5 mg) were placed in a 10 ml syringe. To this powder was added 50 mg corticosteroid TMC.

With `C[C@]12C=CC(=O)C=C1CC[C@H]1[C@@H]3C[C@@H](O)[C@](O)(C(=O)CO)[C@@]3(C)C[C@H](O)[C@@]12F` [TMC], the “amount eluted each day” value is recorded as “about 54 micro grams”.
